Four molecules from US20030166548A1, “PLAP polypeptides and methods of producing and using same” (Board of Regents, The University of Texas System, priority 1997, published 2003) can be followed below.

Several values for one entry are separate records, joined by “and”; a condition that tells them apart may be missing. Identical values can stand only once.

The target in assay [1] is human serum PLA2 (human) (UniProt P04054). In words: cell-based or functional assay.
In assay [2] the target is PLA2 of synovial fluid from rheumatoid arthritis patients (human (rheumatoid arthritis patients)) (UniProt P14555). The experiment in a line: cell-based or functional assay.
The target in assay [3] is human serum PLA2 (human) (UniProt P04054).
Another assay deals with synovial fluid PLA2. In words: Interference of streptavidin-peroxidase binding to biotin-melittin by synovial fluid PLA2. Also noted: species or system human. The following applies: plate coated with biotinylated synthetic melittin, FIG. 6B.
Assay [4] addresses T1, affinity-purified PLA2 enzyme isolated from synovial fluid of rheumatoid arthritis patients (Homo sapiens, UniProt P14555).
T1 construct: from tissue
T1 sequence (P14555 21-144): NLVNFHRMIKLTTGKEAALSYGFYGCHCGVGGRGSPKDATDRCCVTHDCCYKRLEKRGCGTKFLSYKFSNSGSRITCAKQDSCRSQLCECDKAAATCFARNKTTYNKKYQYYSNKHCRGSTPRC
In words: PLA2 assay, unsonicated vesicles labeled with [14C]-phosphatidylcholine, affinity-purified enzyme. Format: biochemical. As for the experimental part:
(§1) Radiolabeled phosphatidylcholine or phosphatidylethanolamine containing [^14C]-arachidonic acid in the sn-2 position of the phospholipid was dried under nitrogen and the lipid vesicles were prepared in 0.05% Triton X-100. The reaction mixture contained 10 μl of phospholipid substrate, 10 μl of 5× assay buffer (500 mM Tris[hydroxymethyl]aminomethane […]HCl (Tris HCl), pH 8.0; 500 mM NaCl; 5.0% fatty acid-free bovine serum albumin (BSA); and 5 mM CaCl2), 10 μl PLA2 enzyme preparation, and sufficient H2O to adjust the total volume to 50 μl The reaction mixture was incubated for 30 minutes at 37° C. in a waterbath and stopped by the addition of 50 μl of chloroform and methanol (1:3), containing 200 μg/ml of unlabeled arachidonic acid and then the mixture was vortexed Lipid was extracted by adding 50 μl of chloroform and 50 μl of 4M KCl, after which, the mixture was vortexed and centrifuged in a microfuge at 14,000 rpm for 10 minutes A 25 μl aliquot of the organic phase was spotted onto glass silica gel plates (Whatman LK6DF) and placed in a thin layer chromatography chamber with a solvent system containing petroleum ether, diethyl ether, and acetic acid (5:25:1) for 30 minutes. The lipid spots were made visible by placing the silica gel plates in a chamber containing iodine vapor. The silica gel region corresponding to arachidonic acid was scraped and transferred to scintillation vials containing 10 ml of scintillation cocktail, which is commercially available and designed to measure the amount of radioactivity in aqueous samples when used with a liquid scintillation counter. The amount of radionuclide corresponding to [^14C]-arachidonic acid in each vial was determined in a Beckman liquid scintillation counter. Results of these assays are shown in Tables 1 and 2 listed after Example 3.

The subject of assay [5] is PLA2 from synovial fluid from rheumatoid arthritis patients. The experiment in a line: PLA2 assay using unsonicated vesicles. The following applies: Synovial F., peptide 1 μg. Format: biochemical, human. As for the experimental part:
(§2) In general, assays involve incubation of purified PLA2 or a mixture believed to contain PLA2, such as synovial fluid, with a PLA2 substrate containing radio-labeled arachidonic acid in the presence of the inhibitor of interest. Suitable substrates for PLA2 reactions include any glycerol-3-phosphate with arachidonic acid substituted at the sn-2 position. The preferred substrates of the assays of this invention include [^14C]-arachidonic acid-substituted phosphatidylcholine or [^14C]-arachidonic acid-substituted phosphatidylethanolamine. After the reaction is stopped by addition of chloroform and methanol, TLC chromatography is used to separate the released [^14C] arachidonic acid from [^14C] arachidonic acid-labeled phosphatidylcholine/ethanolamine, which may be quantified by scintillation counting.
Radiolabeled phosphatidylcholine or phosphatidylethanolamine containing [^14C]-arachidonic acid in the sn-2 position of the phospholipid was dried under nitrogen and the lipid vesicles were prepared in 0.05% Triton X-100. […] The silica gel region corresponding to arachidonic acid was scraped and transferred to scintillation vials containing 10 ml of scintillation cocktail, which is commercially available and designed to measure the amount of radioactivity in aqueous samples when used with a liquid scintillation counter. […]

Assay [6] concerns the target T2, PLA2 from bovine pancreas (Bos taurus, UniProt P00593). The experiment in a line: PLA2 assay using unsonicated vesicles. Format: biochemical. To be noted: Bovine P., peptide 1 μg. The method, then: as §2, §1
Assay [7] has as its system PLA2 from snake venom. The experiment in a line: PLA2 assay using unsonicated vesicles. Format: biochemical. The following applies: Snake V., peptide 1 μg. The method, then: as §2, §1
Assay [8] has as its target T3, PLA2 from bee venom (Apis mellifera, UniProt P00630). The experiment in a line: biochemical. Format: biochemical.
For assay [9], the target named is T1, affinity-purified PLA2 enzyme isolated from synovial fluid of rheumatoid arthritis patients. The experiment in a line: PLA2 assay, [3H]-oleic acid-E. coli, affinity-purified enzyme. The following applies: mean of three determinations. Format: biochemical. The method, then:
(§3) The procedure is a modification of that described by Elsbach and Weiss (1991). E. coli strain SJ198 was grown in 10 ml M9 minimal medium plus 50 μl glycerol, 100 μl vitamin mix, 40 μl methionine (25 mg/ml), 50 μl [^3H]-oleic acid (0.1 μCi/μl), and 100 μl casamino acids (100 mg/ml). After incubation at 37° C. overnight, the culture was centrifuged and washed three times in PBS, autoclaved for 15 minutes, washed again three times in PBS and stored at −70° C. The reaction mixture contained 10 μl of 5×assay of the PLA2 enzyme preparation, 10 μl of [^3H]-oleic acid-labeled E. coli cells, and enough H2O to adjust the total volume to 50 μl. The reaction mixture was incubated for 15 minutes at 37° C. in a waterbath. To stop the reaction, the tubes were transferred immediately to an ice bath and an equal volume of either 1 M HCl or 4 volumes cold PBS was added. After centrifugation in a microfuge at 4° C. for 10 minutes, an aliquot equal to 25% of the volume of the supernatant was used to measure the amount of [^3H]-labeled oleic acid released from the E. coli cells by PLA2 using liquid scintillation counting.

For assay [10], the target named is T3, PLA2 from bee venom. Format: biochemical.
The test system of assay [11] is PLA2 from synovial fluid from rheumatoid arthritis patients. The experiment in a line: PLA2 assay using [3H]-oleic acid labeled E. coli. The following applies: Synovial F., peptide 1 μg. Format: biochemical, human. As for the experimental part:
(§4) PLA2 activity may also be assayed using [^3H]-oleic acid labeled Escherichia coli, in a modification of the procedure previously described by [Elsbach and Weiss, 1991]. E. coli cells grown in the presence of [^3H]-oleic acid are incubated with PLA2 enzyme. The reaction is quenched either by addition of 1M HCl or by dilution in cold phosphate buffered saline (PBS). The amount of [^3H]-oleic acid released from the E. coli cells by PLA2 is measured using scintillation counting.
as §3, with “After centrifugation in a microfuge at 4° C. for 10 minutes, an aliquot equal to 25% of the volume of the supernatant was used to measure the amount of [^3H]-labeled oleic acid released from the E. coli cells by PLA2 using liquid scintillation counting.” left out

The next assay deals with Human serum PLA2. The experiment in a line: PLA2 assay of human serum fractions eluted from MLT-Sepharose column, [3H]-oleic acid-labeled E. coli substrate. Format: biochemical. To be noted: for PLA2 activity: Melittin 5 μM. As for the experimental part: as §3
Isolation of PLA2 from human serum: 10 ml of heat-inactivated human serum Gemini Bio Product Inc. (Calabasas, Calif.) was diluted 1:10 with PBS and loaded onto Melittin-Sepharose as well as PLAP-Sepharose columns pre-equilibrated with PBS. Columns were washed with 500 ml of PBS overnight and eluted with 0.5M glycine/HCl buffer, pH 2.8 and 2 ml fractions were collected, neutralized to pH 7.2 with Tris-HCl buffer and analyzed for PLA2 activity using [^3H]labeled oleic acid—E. coli cells as substrate. Eluted fractions were concentrated and dialyzed in centricon 10 (Amicon, Inc., Beverly, Mass.) and the pass through was discarded. The retentate was again passed through centricon 30 and concentrated to about ⅕th of the volume. Both retentate and pass through were subjected to PLA2, assay with and without melittin.

Assay [12] deals with T2, PLA2 from bovine pancreas. The experiment in a line: PLA2 assay using [3H]-oleic acid labeled E. coli. Format: biochemical. The following applies: Bovine P., peptide 1 μg. As for the experimental part: as §4, §3
Assay [13] has as its system PLA2 from snake venom. In words: PLA2 assay using [3H]-oleic acid labeled E. coli. Format: biochemical. To be noted: Snake V., peptide 1 μg. The method, then:
as §4, §3

In a further assay the test system is phospholipase D (PLD). The experiment in a line: Synthetic melittin added to dissociated membranes from U-937 cells. To be noted: dissociated membranes from human monocyte cell line U-937. Format: biochemical.
Assay [14] deals with T4, bee venom PLA2 (bee), P00630.
T4 chain: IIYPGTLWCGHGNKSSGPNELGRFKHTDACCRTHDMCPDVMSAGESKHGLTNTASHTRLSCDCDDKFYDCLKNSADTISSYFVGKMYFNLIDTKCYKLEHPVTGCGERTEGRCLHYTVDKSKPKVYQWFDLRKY
The experiment in a line: cell-based or functional assay.

Setting [15] is: A: [14C]-phosphatidylcholine vesicles.
Setting [16] is: B: phosphatidylethanolamine vesicles.
Setting [17] is: C: [3H]-oleic acid-labeled E. coli, stopped with cold PBS.
Setting [18] is: D: [3H]-oleic acid-labeled E. coli, stopped with 1N HCl.

T2 sequence (P00593 23-145): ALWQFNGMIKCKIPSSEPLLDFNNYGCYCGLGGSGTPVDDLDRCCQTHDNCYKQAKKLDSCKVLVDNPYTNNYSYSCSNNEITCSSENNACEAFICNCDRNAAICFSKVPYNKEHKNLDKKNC
Chain of human serum PLA2 (human) (P04054 23-148 limits assumed): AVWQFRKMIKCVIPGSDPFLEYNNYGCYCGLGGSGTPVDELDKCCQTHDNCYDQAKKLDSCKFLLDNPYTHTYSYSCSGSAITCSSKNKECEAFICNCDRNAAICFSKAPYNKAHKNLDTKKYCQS

Consider synthetic melittin (peptide), for which, in the assay with human serum PLA2 (human) [1], the reduction in PLA2 activity in the presence of melittin came out at 4 fold. Also, the Inhibitory Potency in assay [2] turned out to be 80%. Besides, in the assay with human serum PLA2 (human) [3], the Purification came out at 1520 fold.
For the molecule “biotinylated synthetic melittin: biotinylated synthetic melittin used to coat microtiter plates”, in the assay on synovial fluid PLA2, the “interference of synovial fluid with streptavidin-peroxidase binding” value is recorded as “dose-dependent interference”.
The term EC50 denotes the concentration at which the effect is half-maximal. Low values mean greater potency, high ones weaker potency. Turning to `CC[C@H](C)[C@H](NC(=O)CN)C(=O)NCC(=O)N[C@@H](C)C(=O)N[C@H](C(=O)N[C@@H](CC(C)C)C(=O)N[C@@H](CCCCN)C(=O)N[C@H](C(=O)N[C@@H](CC(C)C)C(=O)N[C@H](C(=O)N[C@H](C(=O)NCC(=O)N[C@@H](CC(C)C)C(=O)N1CCC[C@H]1C(=O)N[C@@H](C)C(=O)N[C@@H](CC(C)C)C(=O)N[C@H](C(=O)N[C@@H](CO)C(=O)N[C@@H](Cc1c[nH]c2ccccc12)C(=O)N[C@H](C(=O)N[C@@H](CCCCN)C(=O)N[C@@H](CCCNC(=N)N)C(=O)N[C@@H](CCCCN)C(=O)N[C@@H](CCCNC(=N)N)C(=O)N[C@@H](CCC(N)=O)C(=O)N[C@@H](CCC(N)=O)C(N)=O)[C@@H](C)CC)[C@@H](C)CC)[C@@H](C)O)[C@@H](C)O)C(C)C)C(C)C` [Melittin], the “Inhibitory Potency” value in assay [4] (Table 2A, follows Table 2) is given as 80%. The “Phospholipase A2 activity B(× 10^−3) [14C]-phosphatidylcholine” value in [4] (peptide 1.0 μM, mean of three determinations) is 0.055 ± 0.010 × 10^−3 μ moles/min/ml. In addition, the “order of inhibitory potency” value in assay [4] (rank order from Table 2) is recorded as “MLT>G25>G22>G141>G27>G23”. For the same molecule, the “Phospholipase A2 activity” value in assay [5] (setting [15]) is reported as 2.9 ± 0.0 × 10^−4 μmole/min ml; in assay [5] (setting [16]), 4.7 ± 0.0 × 10^−4 μmole/min ml; in assay [6] (setting [15]), 3.6 ± 0.9 × 10^−5 μmoles/min/mg of protein; in assay [6] (setting [16]), 2.96 ± 0.0 × 10^−3 μmoles/min/mg of protein; in the assay on PLA2 from snake venom [7] (setting [15]), 1.41 ± 0.84 μmoles/min/mg of protein; in the assay on PLA2 from snake venom [7] (setting [16]), 0.05 ± 0.03 μmoles/min/mg of protein. Also, the “Phospholipase A2 activity” value at PLA2 from bee venom [8] was 801 ± 55.0 μmoles/min/mg of protein and 1315.0 ± 48.2 μmoles/min/mg of protein; in assay [11] (setting [17]) it was 5.5 ± 0.4 µmol/min/mL; in [11] (setting [18]), 43.65 ± 3.19 µmol/min/mL; in [12] (setting [17]) it was 0.06 ± 0.03 μmoles/min/mg of protein; in assay [12] (setting [18]) it was 1.51 ± 0.17 μmoles/min/mg of protein; with PLA2 from snake venom [13] (setting [17]), 61.5 ± 2.75 μmoles/min/mg of protein. Besides, the “Phospholipase A2 activity” value in the assay with PLA2 from snake venom [13] (setting [18]) is on record as 59.13 ± 13.97 μmoles/min/mg of protein. The molecule further returned an EC50 on PLA2 from bee venom [8] of 20 nM. Besides, the “amount of synthetic melittin required to inhibit maximal PLA2 activity” value on PLA2 from bee venom [8] turned out to be 30 mM. Moreover, the “Phospholipase A2 activity C [3H]-oleic acid-E. coli” value in assay [9] (peptide 1.0 μM) turned out to be 0.50 ± 0.12 μ moles/min/ml; in assay [9] (peptide 5.0 μM), 0.12 ± 0.02 μ moles/min/ml; in [9] (peptide 10 μM), 0.06 ± 0.03 μ moles/min/ml. Moreover, at PLA2 from bee venom [10], the “type of inhibition of bee venom PLA2” value is reported as “noncompetitive inhibitor”. Further, the figures for the PLA2 activity in the assay on Human serum PLA2 (Human serum PLA2 eluted from MLT-Sepharose column), in the assay on Human serum PLA2 (eluate Centricon 30 concentrated (5 times)) and in the assay with Human serum PLA2 (eluate Centricon 30 pass through) were 219 ± 16.3 nano mol/min/ml, 192 ± 5.44 nano mol/min/ml and 172 ± 8.73 nano mol/min/ml, respectively. In addition, the “reduction in PLA2 activity in the presence of melittin” value in the assay with Human serum PLA2 (fractions after concentration by centricon 10 or 30) worked out at 4 fold. The “effect on phospholipase D (PLD)” value with phospholipase D (PLD) is “stimulates PLD”; in the assay on phospholipase D (PLD) (listed as synthetic melittin), “resulted in the formation of phosphatidic acid and release of arachidosic acid”.
Consider GIGAVLKVLTTGLPALISWIKRKRQQ (modifications not checked) [synthetic melittin], for which the molar ratio of melittin to PLA2 at maximal inhibition (mol melittin per mol PLA2) in assay [14] was found to be 30.
